According to US20200085839A1, “COMBINATION OF IMMUNOTHERAPEUTICS AND BISFLUOROALKYL-1,4-BENZODIAZEPINONE COMPOUNDS FOR TREATING LYMPHOMAS” (Ayala Pharmaceuticals Inc., priority 2018, published 2020):
Entries after “also recorded” stand apart in the source; their conditions may differ.

How the values were obtained:
Format in all cases: cell-based, human
[1] = system: BCMA negative CD19 positive Raji Burkett lymphoma cell line; test: Lysis of BCMA negative cells by BCMA-CAR-T cells and/or Compound (1); conditions: combination with BCMA-CAR-T cells or each alone
GFP^+ LPL line = test: Lysis of GFP expressing tumor cell lines by BCMA-CAR-T cells and/or Compound (1); conditions: BCMA-CAR-T cells and Compound (1) combined; 36 h
Description: Multiple unique fully human scFvs to BCMA are generated, and CARs based on these scFvs are generated. Multiple scFvs are identified by screening a fully human scFv phage library (>6×10^10 scFvs) with BCMA-Fc fusion protein and then 3T3 cells expressing human BCMA. FACS analysis of phage antibody clones against BCMA-3T3 and parental 3T3 cell lines is used to confirm unique positive clones.
The generated scFvs are used to generate BCMA-targeted CARs. These BCMA-targeted CARs have similar structure, e.g., each has a transmembrane domain comprising a CD28 polypeptide, and an intracellular domain comprising a […] and a co-stimulatory signaling region that comprises a CD28 polypeptide. Each of these BCMA-targeted CARs are cloned into a retroviral vector. These viral vectors are then transduced into HEK 293galv9 viral packaging cells in order to generate a stable packaging line for generation of CAR+ T cells. […] The cell surface expression of BCMA-targeted CARs on human T cells is determined via binding A647 conjugated BCMA-Fc fusion protein. The cell surface expression of BCMA-targeted 28z CAR24 is assessed, and cell surface detection is validated by flow cytometry.
The ability of BCMA-CAR-T cells and Compound (1) to specifically lyse human myeloma cell line (HMCL) is tested. […] At time 0, the percent of GFP tumor line is determined.

018Z cells (B-ALL) = test: Cell surface BCMA by FACS
Method: (§1) Cells were seeded at 1×10^4 cells/well in a total volume of 250 μl into a 96-well plate. The cells were cultured in RPMI supplemented with 10% FCS.
(§2) The tested compounds (Compound 1 and Compound 22) were added to the cell cultures at concentrations of: 0, 10, 1, 0.5, 0.1, 0.01, 0.001 μM ([…], 10 nM, 100 nM, 500 nM, 1000 nM, and 10000 nM). Following 24 hours of incubation at 37° C., the cells were collected and stained with anti-BCMA antibody and immediately analyzed by FACS.
(§3) […] cell lines, comprising 9 subtypes of lymphomas (see Table 1), were seeded at 1×10^5 cells/well in a total volume of 250 μl into a 96-well plate. The cells were cultured in RPMI medium supplemented with 10% FCS. Compound (22) was added to the cell cultures at a concentration of 10 μM, 1 μM, 100 nM, 10 nM, 1 nM, 100 pM, 10 pM, 1 pM, and 100 fM, and cell lines (8 from Hadassah Medical Center, 31 from Eurofins) were incubated at 37° C. for 24 hours with Compound (22). Following incubation, the cells were collected and BCMA levels were evaluated on the cell surface for cell-bound BCMA. Cells were stained with an anti-BCMA antibody (PE anti-human 19F2 BCMA, Biolegend), and cell surface BCMA levels were determined by FACS analysis (Mean Fluorescence Intensity. Soluble BCMA levels were analyzed by ELISA (Human BCMA/TNFRSF17 DuoSet kit: R&D Systems).

REH cells (B-ALL) = test: Cell surface BCMA by FACS
Method: as §1, §2, §3

[2] = system: SUDHL-4 (Haddasah) cells (DLBCL); test: Cell surface BCMA by FACS
Method: as §1, §2, §3

SUDHL-6 cells (DLBCL) = test: Cell surface BCMA by FACS
Method: as §1, §2, §3

Toledo cells (DLBCL) = test: Cell surface BCMA by FACS
Method: as §1, §2, §3

[3] = system: SP49 cells (Mantle Cell Lymphoma); test: Cell surface BCMA by FACS
Method: as §1, §2, §3

RS411 cells (B-ALL) = test: Cell surface BCMA by FACS
Method: as §1, §2, §3

RC cells (DLBCL) = test: Cell surface BCMA by FACS
Method: as §1, §2, §3

[4] = system: […] cell lines, comprising 9 subtypes of lymphomas; test: Soluble BCMA by ELISA, lymphoma cell line panel
Method: as §3

[5] = system: Raji cells (Burkitt's Lymphoma); test: Soluble (shed) BCMA by ELISA
Method: as §3

[6] = system: NU-DUL-1 cells (B-cell Lymphoma); test: Soluble (shed) BCMA by ELISA
Method: as §3

HT cells (DLBCL) = test: Soluble (shed) BCMA by ELISA
Method: as §3

[7] = system: Namalwa cells (Burkitt's Lymphoma); test: Soluble (shed) BCMA by ELISA
Method: as §3

[8] = Homo sapiens, read-out: Shed BCMA (pg/ml) EC50

CN1C(=O)[C@@H](NC(=O)[C@H](CCC(F)(F)F)[C@H](CCC(F)(F)F)C(N)=O)N=C(c2ccccc2)c2ccccc21 [Compound 1, (2R,3S)—N-((3S)-1-methyl-2-oxo-5-phenyl-2,3-dihydro-1H-1,4-benzodiazepin-3-yl)-2,3-bis(3,3,3-trifluoropropyl)succinamide]
lysis of BCMA negative cells [1]: neither the BCMA-CAR-T cells and Compound (1) combination nor each alone lyses
specific killing of GFP tumor cells (GFP^+ LPL line): specifically killed more cells of the GFP^+ LPL line than either treatment alone

Cc1cccc2c1NC(=O)[C@@H](NC(=O)[C@H](CCC(F)(F)F)[C@H](CCC(F)(F)F)C(N)=O)N=C2c1cccc(F)c1 [Compound (22), (2R,3S)—N-((3S)-5-(3-fluorophenyl)-9-methyl-2-oxo-2,3-dihydro-1H-1,4-benzodiazepin-3-yl)-2,3-bis(3,3,3-trifluoropropyl)succinamide]
mBCMA (MFI) Fold Increase (018Z cells (B-ALL)): 0.9 fold
BCMA (Mean Fluorescence Intensity) 1 nM Compound (22) (018Z cells (B-ALL); 1 nM, 24 h): 4121
BCMA (Mean Fluorescence Intensity) 100 nM Compound (22) (018Z cells (B-ALL); 100 nM, 24 h): 4500
mBCMA (MFI) Fold Increase (REH cells (B-ALL)): 0.9 fold
BCMA (Mean Fluorescence Intensity) 1 nM Compound (22) (REH cells (B-ALL); 1 nM, 24 h): 5559
BCMA (Mean Fluorescence Intensity) 100 nM Compound (22) (REH cells (B-ALL); 100 nM, 24 h): 6463
mBCMA (MFI) Fold Increase ([2]; SUDHL-4 (Haddasah)): 2.5 fold
BCMA (Mean Fluorescence Intensity) 1 nM Compound (22) ([2]; SUDHL-4, 1 nM, 24 h): 16100
BCMA (Mean Fluorescence Intensity) 100 nM Compound (22) ([2]; SUDHL-4, 100 nM, 24 h): 23438
mBCMA (MFI) Fold Increase (SUDHL-6 cells (DLBCL)): 2.6 fold
BCMA (Mean Fluorescence Intensity) 1 nM Compound (22) (SUDHL-6 cells (DLBCL); 1 nM, 24 h): 22915
BCMA (Mean Fluorescence Intensity) 100 nM Compound (22) (SUDHL-6 cells (DLBCL); 100 nM, 24 h): 24812
mBCMA (MFI) Fold Increase (Toledo cells (DLBCL)): 3.2 fold
BCMA (Mean Fluorescence Intensity) 1 nM Compound (22) (Toledo cells (DLBCL); 1 nM, 24 h): 7541
BCMA (Mean Fluorescence Intensity) 100 nM Compound (22) (Toledo cells (DLBCL); 100 nM, 24 h): 9580
mBCMA (MFI) Fold Increase [3]: 3.3 fold
BCMA (Mean Fluorescence Intensity) 1 nM Compound (22) ([3]; 1 nM, 24 h): 12697
BCMA (Mean Fluorescence Intensity) 100 nM Compound (22) ([3]; 100 nM, 24 h): 17462
mBCMA (MFI) Fold Increase (RS411 cells (B-ALL)): 0.9 fold
BCMA (Mean Fluorescence Intensity) 1 nM Compound (22) (RS411 cells (B-ALL); 1 nM, 24 h): 2273
BCMA (Mean Fluorescence Intensity) 100 nM Compound (22) (RS411 cells (B-ALL); 100 nM, 24 h): 2518
mBCMA (MFI) Fold Increase (RC cells (DLBCL)): 2.9 fold
BCMA (Mean Fluorescence Intensity) 1 nM Compound (22) (RC cells (DLBCL); 1 nM, 24 h): 12970
BCMA (Mean Fluorescence Intensity) 100 nM Compound (22) (RC cells (DLBCL); 100 nM, 24 h): 15001
soluble BCMA ([4]; cell lines derived from Mantle Cell Lymphoma, DLBCL, Burkitt's Lymphoma, B-cell Lymphoma, 24 h): reduced soluble BCMA
shedding ([4]; certain lymphomas): abrogates shedding
BCMA shedding ([4]; lymphoma cells): decreases BCMA shedding from some lymphomas; also recorded: inhibits BCMA shedding
soluble BCMA ([4]; some Lymphoma/Leukemia cell lines): Compound (22) decreases soluble BCMA in some Lymphoma/Leukemia cell lines
Shed BCMA (pg/ml) % Reduction [5]: 99%
soluble BCMA 1 nM Compound (22) ([5]; 1 nM, 24 h): 81.4
soluble BCMA 10 nM Compound (22) ([5]; 10 nM, 24 h): 29.7
soluble BCMA 100 nM Compound (22) ([5]; 100 nM, 24 h): 26.3
EC50 [5, 8]: 0.3 nM
Shed BCMA (pg/ml) % Reduction [6]: 91%
EC50 [6, 8]: 1 nM
Shed BCMA (pg/ml) % Reduction (HT cells (DLBCL)): 98%
soluble BCMA 1 nM Compound (22) (HT cells (DLBCL); 1 nM, 24 h): 389.4
soluble BCMA 10 nM Compound (22) (HT cells (DLBCL); 10 nM, 24 h): 99.4
soluble BCMA 100 nM Compound (22) (HT cells (DLBCL); 100 nM, 24 h): 38
EC50 (HT cells (DLBCL); [8]): 1 nM
EC50 ([7]; Homo sapiens, Namalwa, read-out: Shed BCMA (pg/ml) EC50): 0.6 nM
soluble BCMA 10 nM Compound (22) ([7]; NAMALWA, 10 nM, 24 h): 66.6
Shed BCMA (pg/ml) % Reduction ([7]; Namalwa): 95%
soluble BCMA 1 nM Compound (22) ([7]; Namalwa, 1 nM, 24 h): 87.5
soluble BCMA 100 nM Compound (22) ([7]; Namalwa, 100 nM, 24 h): 67.4
